The source of these data is patent US10364238B2, “N-((het) arylmethyl)-heteroaryl-carboxamides compounds as plasma kallikrein inhibitors” (KALVISTA PHARMACEUTICALS LIMITED, priority 2014, dated 2019).

pIC50: −log10 of the molar value.

Common to all, as to assay type: biochemical
One test addresses Human FXIa (Homo sapiens (Human), UniProt P03951). The test can be described thus: Determination of the % inhibition for FXIa. Particulars: 40 μM test compound, 25° C., substrate Z-Gly-Pro-Arg-AFC. How it is done:
Determination of the % Inhibition for FXIa
Human FXIa (Enzyme Research Laboratories) was incubated at 25° C. with the fluorogenic substrate Z-Gly-Pro-Arg-AFC and 40 μM of the test compound. Residual enzyme activity (initial rate of reaction) was determined by measuring the change in […].

In another test the target is Human plasma kallikrein (Homo sapiens (Human), UniProt P03952). Nature of the test: Determination of the IC50 for plasma kallikrein. To be noted: 25° C., fluorogenic substrate H-DPro-Phe-Arg-AFC; read-out: IC50 (human PKaI). How it is done:
Determination of the IC50 for Plasma Kallikrein
Human plasma kallikrein (Protogen) was incubated at 25° C. with the fluorogenic substrate H-DPro-Phe-Arg-AFC and various concentrations of the test compound. Residual enzyme activity (initial rate of reaction) was determined by measuring the change in […] at 410 nm and the IC50 value for the test compound was determined.

The target of another test is Human KLK1 (Homo sapiens (Human), UniProt P06870). Nature of the test: Determination of the IC50 for KLK1. To be noted: 25° C., fluorogenic substrate H-DVal-Leu-Arg-AFC. How it is done: Determination of the IC50 for KLK1
Human KLK1, sequence (P06870 25-262): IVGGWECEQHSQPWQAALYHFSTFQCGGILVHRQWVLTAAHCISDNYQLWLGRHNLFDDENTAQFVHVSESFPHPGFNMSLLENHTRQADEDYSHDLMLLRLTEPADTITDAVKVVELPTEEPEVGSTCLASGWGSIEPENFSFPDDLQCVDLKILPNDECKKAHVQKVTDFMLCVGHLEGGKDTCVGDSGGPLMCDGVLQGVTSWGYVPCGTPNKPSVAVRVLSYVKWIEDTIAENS
Human KLK1 (Callbiochem) was incubated at 25° C. with the fluorogenic substrate H-DVal-Leu-Arg-AFC and various concentrations of the test compound. Residual enzyme activity (initial rate of reaction) was determined by measuring the change in […] at 410 nm and the IC50 value for the test compound was determined.

Human FXIa, sequence (P03951 388-625): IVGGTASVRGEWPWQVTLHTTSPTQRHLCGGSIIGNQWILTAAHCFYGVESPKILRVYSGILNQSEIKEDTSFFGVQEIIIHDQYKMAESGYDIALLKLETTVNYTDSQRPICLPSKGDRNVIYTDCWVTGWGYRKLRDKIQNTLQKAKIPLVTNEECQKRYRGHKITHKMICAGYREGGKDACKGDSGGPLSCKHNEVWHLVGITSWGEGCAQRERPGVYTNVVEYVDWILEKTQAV
Human FXIa, sequence (P03951 19-387 partner): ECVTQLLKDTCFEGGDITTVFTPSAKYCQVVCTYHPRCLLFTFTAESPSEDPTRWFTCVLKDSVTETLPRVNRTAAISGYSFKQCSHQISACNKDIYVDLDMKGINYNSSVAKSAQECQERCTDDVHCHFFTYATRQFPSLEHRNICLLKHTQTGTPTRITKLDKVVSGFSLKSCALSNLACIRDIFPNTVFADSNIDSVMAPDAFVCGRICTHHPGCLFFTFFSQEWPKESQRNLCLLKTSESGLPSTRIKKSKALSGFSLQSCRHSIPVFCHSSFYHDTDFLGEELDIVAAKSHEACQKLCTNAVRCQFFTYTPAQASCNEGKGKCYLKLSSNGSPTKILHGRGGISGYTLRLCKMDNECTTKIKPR
Human plasma kallikrein, sequence (P03952 391-638): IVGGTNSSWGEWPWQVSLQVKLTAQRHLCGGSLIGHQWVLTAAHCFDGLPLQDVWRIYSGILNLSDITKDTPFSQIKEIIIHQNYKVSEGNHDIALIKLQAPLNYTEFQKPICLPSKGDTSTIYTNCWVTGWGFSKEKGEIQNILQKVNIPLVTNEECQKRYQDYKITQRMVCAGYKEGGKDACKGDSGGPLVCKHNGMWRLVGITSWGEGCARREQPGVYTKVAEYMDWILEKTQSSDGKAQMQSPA
Human plasma kallikrein, sequence (P03952 20-390 partner): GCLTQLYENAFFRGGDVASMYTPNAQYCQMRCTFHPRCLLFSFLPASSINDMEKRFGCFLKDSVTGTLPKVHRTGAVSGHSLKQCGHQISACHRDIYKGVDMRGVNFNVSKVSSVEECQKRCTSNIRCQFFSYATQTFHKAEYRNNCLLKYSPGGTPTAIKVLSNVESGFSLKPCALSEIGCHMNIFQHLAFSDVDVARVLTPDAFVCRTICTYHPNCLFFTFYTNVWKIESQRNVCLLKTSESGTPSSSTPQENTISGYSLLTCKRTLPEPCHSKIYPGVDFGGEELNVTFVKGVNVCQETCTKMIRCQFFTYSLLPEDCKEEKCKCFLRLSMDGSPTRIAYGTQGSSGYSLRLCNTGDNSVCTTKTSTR

`COCc1nn(Cc2ccc(Cn3ccccc3=O)cc2)cc1C(=O)NCc1cccc(OC)c1C(F)(F)F` [Example 78, N-{[3-methoxy-2-(trifluoromethyl)phenyl]methyl}-3-(methoxymethyl)-1-({4-[(2-oxopyridin-1-yl)methyl]phenyl}methyl)pyrazole-4-carboxamide] had an inhibition at 40 µM at Human FXIa of 0%. The results for the pIC50 at Human plasma kallikrein and on Human KLK1 were 6.21 and less than 5.00, respectively.
Turning to `COCc1nn(Cc2ccc(Cn3ccccc3=O)cc2)cc1C(=O)NCc1c(Cl)ccc(OC)c1F` [Example 99, N-[(6-chloro-2-fluoro-3-methoxyphenyl)methyl]-3-(methoxymethyl)-1-({4-[(2-oxopyridin-1-yl)methyl]phenyl}methyl)pyrazole-4-carboxamide], at Human FXIa, the inhibition at 40 µM came out at 4%.
For the compound `Nc1nn(Cc2ccc(Cn3ccccc3=O)cc2)cc1C(=O)NCc1ccc(OC(F)(F)F)cc1` [Example 58, 3-amino-1-({4-[(2-oxopyridin-1-yl)methyl]phenyl}methyl)-N-{[4-(trifluoromethoxy)phenyl]methyl}pyrazole-4-carboxamide], the “% Inhibition @ 40 μM (human FXIa)” value at Human FXIa is on record as 0%. In addition, the figures for the pIC50 at Human plasma kallikrein and at Human KLK1 were 5.24 and less than 5.00, respectively.
Take `CCc1cccc(CNC(=O)c2cn(Cc3ccc(Cn4ccccc4=O)cc3)nc2COC)c1F` [Example 132, N-[(3-ethyl-2-fluorophenyl)methyl]-3-(methoxymethyl)-1-({4-[(2-oxopyridin-1-yl)methyl]phenyl}methyl)pyrazole-4-carboxamide]: on Human FXIa, the inhibition at 40 µM turned out to be 0%. Moreover, the pIC50 at Human plasma kallikrein is 6.87; on Human KLK1 it was less than 4.40.
On the same counts, the results for `COCc1nn(Cc2ccc(Cn3ccccc3=O)cc2)cc1C(=O)NCc1nc(OC)ccc1F` [Example 42, N-[(3-fluoro-6-methoxypyridin-2-yl)methyl]-3-(methoxymethyl)-1-({4-[(2-oxopyridin-1-yl)methyl]phenyl}methyl)pyrazole-4-carboxamide] are 1%, 6.08 and less than 5.00.
In the case of `COc1cccc(CNC(=O)c2cn(Cc3ccc(Cn4ccccc4=O)cc3)nc2C2CC2)c1F` [Example 52, 3-cyclopropyl-N-[(2-fluoro-3-methoxyphenyl)methyl]-1-({4-[(2-oxopyridin-1-yl)methyl]phenyl}methyl)pyrazole-4-carboxamide], the “% Inhibition @ 40 μM (human FXIa)” value on Human FXIa was determined as 1%. In addition, the results for the pIC50 at Human plasma kallikrein and against Human KLK1 were 7.63 and less than 4.40, respectively.
Compound `CCOc1cccc(CNC(=O)c2cn(Cc3ccc(Cn4cc(C)cn4)cc3)nc2C(F)(F)F)c1` [Example 6, N-[(3-ethoxyphenyl)methyl]-1-({4-[(4-methylpyrazol-1-yl)methyl]phenyl}methyl)-3-(trifluoromethyl)pyrazole-4-carboxamide] returned an inhibition at 40 µM on Human FXIa of 0%.
As to `COCc1nn(Cc2ccc(Cn3ccccc3=O)cc2)cc1C(=O)NCc1cc(OC)ccc1F` [Example 64, N-[(2-fluoro-5-methoxyphenyl)methyl]-3-(methoxymethyl)-1-({4-[(2-oxopyridin-1-yl)methyl]phenyl}methyl)pyrazole-4-carboxamide], the inhibition at 40 µM against Human FXIa turned out to be 0%. The figures for the pIC50 at Human plasma kallikrein and on Human KLK1 were 7.45 and less than 5.00, respectively.
Taken in the same sequence, the figures for `COCc1nn(Cc2ccc(Cn3ccccc3=O)cc2)cc1C(=O)NCc1c(F)ccc(Cl)c1F` [Example 73, N-[(3-chloro-2,6-difluorophenyl)methyl]-3-(methoxymethyl)-1-({4-[(2-oxopyridin-1-yl)methyl]phenyl}methyl)pyrazole-4-carboxamide] were 8%, 6.92 and less than 5.00.
Taken in the same sequence, the figures for `COCc1nn(Cc2ccc(Cn3ccccc3=O)cc2)cc1C(=O)NCc1cccnc1C(F)(F)F` [Example 36, 3-(methoxymethyl)-1-({4-[(2-oxopyridin-1-yl)methyl]phenyl}methyl)-N-{[2-(trifluoromethyl)pyridin-3-yl]methyl}pyrazole-4-carboxamide] were 0%, 5.38 and less than 5.00.
`COCc1nn(Cc2ccc(Cn3ccccc3=O)cc2)cc1C(=O)NCc1c(F)ccc(OC)c1C(F)F` [Example 83, N-{[2-(difluoromethyl)-6-fluoro-3-methoxyphenyl]methyl}-3-(methoxymethyl)-1-({4-[(2-oxopyridin-1-yl)methyl]phenyl}methyl)pyrazole-4-carboxamide] yielded an inhibition at 40 µM against Human FXIa of 14%.
Take `COCc1nn(Cc2ccc(Cn3ccccc3=O)cc2)cc1C(=O)NCc1cccc(O)c1F` [Example 129, N-[(2-fluoro-3-hydroxyphenyl)methyl]-3-(methoxymethyl)-1-({4-[(2-oxopyridin-1-yl)methyl]phenyl}methyl)pyrazole-4-carboxamide]: testing at 40 µM against Human FXIa gave an inhibition of 0%. For the same compound, the pIC50 on Human plasma kallikrein was 6.36.
Turning to `COCc1nn(Cc2ccc(N3CCCC3)nc2)cc1C(=O)NCc1csc2ccc(Cl)cc12` [Example 46, N-[(5-chloro-1-benzothiophen-3-yl)methyl]-3-(methoxymethyl)-1-{[6-(pyrrolidin-1-yl)pyridin-3-yl]methyl}pyrazole-4-carboxamide], the pIC50 at Human plasma kallikrein was 5.62; on Human KLK1, less than 5.00.
Take `Cc1cnn(Cc2ccc(Cn3cc(C(=O)NCc4cccc(Cl)c4F)c(C(F)(F)F)n3)cc2)c1` [Example 19, N-[(3-chloro-2-fluorophenyl)methyl]-1-({4-[(4-methylpyrazol-1-yl)methyl]phenyl}methyl)-3-(trifluoromethyl)pyrazole-4-carboxamide]: the pIC50 at Human plasma kallikrein is 5.95; on Human KLK1, less than 5.00.
In turn, `COCc1nn(Cc2ccc(Cn3ccccc3=O)cc2)cc1C(=O)NCc1cnccc1C(F)(F)F` [Example 37, 3-(methoxymethyl)-1-({4-[(2-oxopyridin-1-yl)methyl]phenyl}methyl)-N-{[4-(trifluoromethyl)pyridin-3-yl]methyl}pyrazole-4-carboxamide] came in with an inhibition at 40 µM against Human FXIa of 0%.
In turn, `COCc1nn(Cc2ccc(Cn3ccccc3=O)cc2)cc1C(=O)NCc1ccc(C)nc1` [Example 39, 3-(methoxymethyl)-N-[(6-methylpyridin-3-yl)methyl]-1-({4-[(2-oxopyridin-1-yl)methyl]phenyl}methyl)pyrazole-4-carboxamide] registered an inhibition at 40 µM against Human FXIa of 0%.
As to `COCc1nn(Cc2ccc(Cn3ccccc3=O)cc2)cc1C(=O)NCc1csc2ccc(Cl)cc12` [Example 45, N-[(5-chloro-1-benzothiophen-3-yl)methyl]-3-(methoxymethyl)-1-({4-[(2-oxopyridin-1-yl)methyl]phenyl}methyl)pyrazole-4-carboxamide], the pIC50 at Human plasma kallikrein was 6.84; at Human KLK1 it was less than 5.00.
On the same counts, the results for `COCc1nn(Cc2ccc(Cn3cc(F)ccc3=O)cc2)cc1C(=O)NCc1c(F)ccc(OC)c1F` [Example 108, N-[(2,6-difluoro-3-methoxyphenyl)methyl]-1-({4-[(5-fluoro-2-oxopyridin-1-yl)methyl]phenyl}methyl)-3-(methoxymethyl)pyrazole-4-carboxamide] are 8.26 and less than 5.00.
On the same counts, the results for `Cc1cnn(Cc2ccc(Cn3cc(C(=O)NCc4c(F)cccc4Cl)c(C(F)(F)F)n3)cc2)c1` [Example 14, N-[(2-chloro-6-fluorophenyl)methyl]-1-({4-[(4-methylpyrazol-1-yl)methyl]phenyl}methyl)-3-(trifluoromethyl)pyrazole-4-carboxamide] are 6.29 and less than 5.00.
On the same counts, the results for `Cc1cnn(Cc2ccc(Cn3cc(C(=O)NCc4ccc(Cl)cc4F)c(C(F)(F)F)n3)cc2)c1` [Example 17, N-[(4-chloro-2-fluorophenyl)methyl]-1-({4-[(4-methylpyrazol-1-yl)methyl]phenyl}methyl)-3-(trifluoromethyl)pyrazole-4-carboxamide] are 6.06 and less than 5.00.
With `COc1cccc(CNC(=O)c2cn(Cc3ccc(Cn4cc(C)cn4)cc3)nc2C(F)(F)F)c1` [Example 5, N-[(3-methoxyphenyl)methyl]-1-({4-[(4-methylpyrazol-1-yl)methyl]phenyl}methyl)-3-(trifluoromethyl)pyrazole-4-carboxamide], the values for the pIC50 at Human plasma kallikrein and against Human KLK1 were 6.44 and less than 5.00, respectively.
On the same counts, the results for `Cc1cnn(Cc2ccc(Cn3cc(C(=O)NCc4cccc(F)c4C)c(C(F)(F)F)n3)cc2)c1` [Example 27, N-[(3-fluoro-2-methylphenyl)methyl]-1-({4-[(4-methylpyrazol-1-yl)methyl]phenyl}methyl)-3-(trifluoromethyl)pyrazole-4-carboxamide] are less than 5.00 and less than 5.00.
On the same counts, the results for `Cc1ccc(CNC(=O)c2cn(Cc3ccc(Cn4cc(C)cn4)cc3)nc2C(F)(F)F)c(C)c1` [Example 24, N-[(2,4-dimethylphenyl)methyl]-1-({4-[(4-methylpyrazol-1-yl)methyl]phenyl}methyl)-3-(trifluoromethyl)pyrazole-4-carboxamide] are 6.14 and less than 5.00.
Taken in the same sequence, the figures for `Cc1cnn(Cc2ccc(Cn3cc(C(=O)NCc4ncccc4F)c(C(F)(F)F)n3)cc2)c1` [Example 29, N-[(3-fluoropyridin-2-yl)methyl]-1-({4-[(4-methylpyrazol-1-yl)methyl]phenyl}methyl)-3-(trifluoromethyl)pyrazole-4-carboxamide] were 5.66 and less than 5.00.

The inhibition is the relative decrease from the control value, in per cent. The term pIC50 denotes the IC50 on a negative log10 scale, so that one unit is a factor of ten.
